Read-outs that look alike come from different tables or passages of the source.
Legend:
[1] = test system: human lung cancer strain NCI-H441; test: NCI-H441 cell proliferation inhibitory activity (CellTiter-Glo, 4 days); type: cell-based; settings: read-out: NCl-H441 IC50
Procedure, shortened: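 Proliferation was scored by […] measured after the reagent was added to cultures kept at 37°C in 5% carbon dioxide.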

[2] = molecular target: GDP-bound KRAS wild-type protein (Homo sapiens, UniProt P01116); test: Binding to KRAS by surface plasmon resonance (SPR), dissociation constant KD
Procedure, shortened: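 Affinity is measured by surface plasmon resonance at 30°C against captured, GDP-loaded RAS carrying a biotinylated Avi tag. Compounds are titrated by single-cycle kinetics, and KD comes from a 1:1 fit.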

[3] = molecular target: GDP-bound NRAS wild-type protein (Homo sapiens, UniProt P01111); test: Binding to NRAS by surface plasmon resonance (SPR), KD and KD ratio to KRAS
Procedure, shortened: (§1)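 SPR, 30°C: Avi-biotin RAS·GDP captured via Biotin CAPture (~100–300 RU); running buffer HBS pH 7.4, 1 mM DTT, 10 mM MgCl2, 0.01% Tween 20, 10 µM GDP, 4% DMSO. Single-cycle kinetics, 100 µL/min, 75 s injections; 1:1 model → KD.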

HRAS wild-type protein = HRAS wild-type protein (Homo sapiens, UniProt P01112); test: Binding to HRAS by surface plasmon resonance (SPR), KD and KD ratio to KRAS
Procedure, shortened: as §1

[4] = ratio of KD for GDP-bound NRAS wild-type protein to KD for KRAS
[5] = ratio of KD for HRAS wild-type protein to KD for KRAS
[6] = 50% proliferation inhibitory concentration, four days
[7] = Single Cycle Kinetics, 1:1 binding model
[8] = ratio of KD with respect to GDP-bound NRAS wild-type protein to KD with respect to KRAS
[9] = ratio of KD with respect to HRAS wild-type protein to KD with respect to KRAS

Chain of GDP-bound NRAS wild-type protein (P01111 whole entry): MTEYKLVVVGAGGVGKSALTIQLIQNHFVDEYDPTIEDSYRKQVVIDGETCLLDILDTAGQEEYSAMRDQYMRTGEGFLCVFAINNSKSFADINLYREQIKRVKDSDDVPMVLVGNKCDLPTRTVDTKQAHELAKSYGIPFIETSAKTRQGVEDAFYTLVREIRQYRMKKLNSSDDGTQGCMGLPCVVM
Chain of HRAS wild-type protein (P01112 whole entry): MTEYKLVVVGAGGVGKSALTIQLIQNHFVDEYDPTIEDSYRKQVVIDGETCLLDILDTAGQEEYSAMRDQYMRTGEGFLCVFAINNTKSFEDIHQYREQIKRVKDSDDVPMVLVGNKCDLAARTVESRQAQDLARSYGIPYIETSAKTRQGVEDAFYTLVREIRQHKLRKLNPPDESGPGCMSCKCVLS
Chain of GDP-bound KRAS wild-type protein (P01116 1-188 isoform P01116-2): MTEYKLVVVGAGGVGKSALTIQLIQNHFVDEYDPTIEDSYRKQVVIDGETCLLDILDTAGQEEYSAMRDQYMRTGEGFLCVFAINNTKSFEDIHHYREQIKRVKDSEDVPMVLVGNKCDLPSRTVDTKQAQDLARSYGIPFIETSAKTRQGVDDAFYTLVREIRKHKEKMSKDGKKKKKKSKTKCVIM

| IC50 ([1]; NCI-H441 cells, 4 days) | Kd ([2]; Single Cycle Kinetics) | IC50 [1, 6] | Kd [2, 7] | Kd ([2]; 1:1 binding model) | Structure (SMILES) | NRAS /KRAS [3, 4] | HRAS /KRAS (HRAS wild-type protein; [5]) | NRAS /KRAS [3, 8] | HRAS /KRAS (HRAS wild-type protein; [9]) |
| --- | --- | --- | --- | --- | --- | --- | --- | --- | --- |
| 9 nM | 0.081 nM | – | – | – | CCC[C@H]1C(=O)N[C@@H]([C@@H](C)CC)C(=O)N(C)CC(=O)N(C)[C@H]2C/C=C\CCN(C2=O)[C@@H](Cc2ccc(C)cc2)C(=O)N(C)CC(=O)N[C@@H](CCc2ccc(C(F)(F)F)c(Cl)c2)C(=O)N2CC3(CC3)C[C@H]2C(=O)N(C)C2(CCC2)C(=O)N(C)[C@@H]([C@@H](C)CC)C(=O)N(C)[C@H](C(=O)N(C)C)CC(=O)N1C [PP3302] | A (a compound having 10 or more and less than 20 is denoted as A) | A (a compound having 10 or more and less than 20 is denoted as A) | – | – |
| 22.8 nM | 0.69 nM | – | – | – | C#CC[C@H]1C(=O)N[C@@H]([C@@H](C)CC)C(=O)N(C2CC2)CC(=O)N(C)[C@H]2C/C=C\CCN(C2=O)[C@@H](Cc2ccc(C)cc2)C(=O)N(C)CC(=O)N[C@@H](CCc2ccc(C(F)(F)F)c(OC)c2)C(=O)N2C[C@H](OCC)C[C@H]2C(=O)OC2(CCC2)C(=O)N(C)[C@@H](C2CCCC2)C(=O)N(C)[C@H](C(=O)N(C)C)CC(=O)N1C [PP3390] | A (a compound having 10 or more and less than 20 is denoted as A) | B (a compound having 3 or more and less than 10 is denoted as B) | – | – |
| 5.2 nM | 0.2 nM | – | – | – | CCO[C@@H]1C[C@H]2C(=O)OC3(CCC3)C(=O)N(C)[C@@H](C3CCCC3)C(=O)N(C)[C@H](C(=O)N(C)C)CC(=O)N(C)[C@@H](CC(C)C)C(=O)N[C@@H]([C@@H](C)CC)C(=O)N(C)CC(=O)N(C)[C@H]3C/C=C\CCN(C3=O)[C@@H](Cc3ccc(C)cc3)C(=O)N(C)CC(=O)N[C@@H](CCc3ccc(C(F)(F)F)c(OC)c3)C(=O)N2C1 [PP3382] | A (a compound having 10 or more and less than 20 is denoted as A) | B (a compound having 3 or more and less than 10 is denoted as B) | – | – |
| 21 nM | 0.55 nM | – | – | – | CCCO[C@@H]1C[C@H]2C(=O)NC3(CC(C)(C)C3)C(=O)N(C)[C@@H](C3CCCC3)C(=O)N(C)[C@H](C(=O)N(C)CC)CC(=O)N(C)[C@@H](COCC)C(=O)N[C@@H]([C@@H](C)CC)C(=O)N3C[C@@H](F)C[C@H]3C(=O)N(C)[C@H]3C/C=C\CCN(C3=O)[C@@H](Cc3ccc(C(F)(F)F)cc3)C(=O)N(C)CC(=O)N[C@@H](CCc3ccc(C(F)(F)F)c(Cl)c3)C(=O)N2C1 [PP3409] | A (a compound having 10 or more and less than 20 is denoted as A) | A (a compound having 10 or more and less than 20 is denoted as A) | – | – |
| 45 nM | 1.3 nM | – | – | – | CCCOC[C@H]1C(=O)N[C@@H](C2CCCC2)C(=O)N(CCC)CC(=O)N(C)[C@H]2C/C=C\CCN(C2=O)[C@@H](Cc2ccc(C(F)F)cc2)C(=O)N(C)CC(=O)N[C@@H](CCc2ccc(C(F)(F)F)c(Cl)c2)C(=O)N2C[C@H](OC(C)C)C[C@H]2C(=O)N(C)C2(CCC2)C(=O)N(C)[C@@H](C(CC)CC)C(=O)N(C)[C@H](C(=O)N(C)C)CC(=O)N1C [PP3489] | AA (a compound having 20 or more is denoted as AA) | A (a compound having 10 or more and less than 20 is denoted as A) | – | – |
| 28.8 nM | 0.82 nM | – | – | – | CCCO[C@@H]1C[C@H]2C(=O)NC3(CC(C)(C)C3)C(=O)N(C)[C@@H](C3CCCC3)C(=O)N(C)[C@H](C(=O)N(C)CC)CC(=O)N(C)[C@@H](COCC)C(=O)N[C@@H]([C@@H](C)CC)C(=O)N(C3CC3)CC(=O)N(C)[C@H]3C/C=C\CCN(C3=O)[C@@H](Cc3ccc(C)cc3)C(=O)N(C)CC(=O)N[C@@H](CCc3cc(F)c(C(F)(F)F)c(F)c3)C(=O)N2C1 [PP3458] | A (a compound having 10 or more and less than 20 is denoted as A) | A (a compound having 10 or more and less than 20 is denoted as A) | – | – |

The next lines start with the compound.

| Structure (SMILES) | IC50 ([1]; NCI-H441 cells, 4 days) | Kd ([2]; Single Cycle Kinetics) | IC50 [1, 6] | Kd [2, 7] | Kd ([2]; 1:1 binding model) | NRAS /KRAS [3, 4] | HRAS /KRAS (HRAS wild-type protein; [5]) | NRAS /KRAS [3, 8] | HRAS /KRAS (HRAS wild-type protein; [9]) |
| --- | --- | --- | --- | --- | --- | --- | --- | --- | --- |
| C#CC[C@H]1C(=O)N[C@@H]([C@@H](C)CC)C(=O)N2CCC[C@H]2C(=O)N(C)[C@H]2C/C=C\CCN(C2=O)[C@@H](Cc2ccc(C)cc2)C(=O)N(C)CC(=O)N[C@@H](CCc2ccc(C(F)(F)F)c(Cl)c2)C(=O)N2C[C@H](OCC)C[C@H]2C(=O)N(C)C2(CCC2)C(=O)N(C)[C@@H](C2CCCC2)C(=O)N(C)[C@H](C(=O)N(C)C)CC(=O)N1C [PP3257] | 2.2 nM | 0.1 nM | – | – | – | A (a compound having 10 or more and less than 20 is denoted as A) | B (a compound having 3 or more and less than 10 is denoted as B) | – | – |
| CCO[C@@H]1C[C@H]2C(=O)NC3(CCCC3)C(=O)N(C)[C@@H](C3CCCC3)C(=O)N(C)[C@H](C(=O)N(C)C)CC(=O)N(C)[C@@H](C)C(=O)N[C@@H]([C@@H](C)CC)C(=O)N(C)CC(=O)N(C)[C@H]3C/C=C\CCN(C3=O)[C@@H](CC3CCC(F)(F)CC3)C(=O)N(C)CC(=O)N[C@@H](CCc3cc(F)c(C(F)(F)F)c(F)c3)C(=O)N2C1 [PP1456] | – | – | 90 nM | 0.12 nM | – | – | – | A (a compound having 10 or more and less than 20 is denoted as A) | A (a compound having 10 or more and less than 20 is denoted as A) |
| CCC[C@H]1C(=O)N[C@@H]([C@@H](C)CC)C(=O)N(C2CC2)CC(=O)N(C)[C@H]2C/C=C\CCN(C2=O)[C@@H](Cc2ccc(C)cc2)C(=O)N(C)CC(=O)N[C@@H](CCc2ccc(C(F)(F)F)c(OC)c2)C(=O)N2CC[C@H](OC)[C@H]2C(=O)N(C)C2(CCC2)C(=O)N(C)[C@@H](C2CCCC2)C(=O)N(C)[C@H](C(=O)N(C)C)CC(=O)N1C [PP3245] | 6.7 nM | 0.18 nM | – | – | – | A (a compound having 10 or more and less than 20 is denoted as A) | A (a compound having 10 or more and less than 20 is denoted as A) | – | – |
| CCO[C@@H]1C[C@H]2C(=O)NC3(CC(C)(C)C3)C(=O)N(C)[C@@H](C3CCCC3)C(=O)N(C)[C@H](C(=O)N(C)C)CC(=O)N(C)[C@@H](COC)C(=O)N[C@@H]([C@@H](C)CC)C(=O)N(C3CC3)CC(=O)N(C)[C@H]3C/C=C\CCN(C3=O)[C@@H](CC3CCCCC3)C(=O)N(C)CC(=O)N[C@@H](CCc3ccc(Cl)c(Cl)c3)C(=O)N2C1 [PP2563] | 108 nM | – | – | – | 2.3 nM | A (a compound having 10 or more and less than 20 is denoted as A) | A (a compound having 10 or more and less than 20 is denoted as A) | – | – |
| CCO[C@@H]1C[C@H]2C(=O)NC3(CCC3)C(=O)N(C)[C@@H](C3CCCC3)C(=O)N(C)[C@H](C(=O)N(C)C)CC(=O)N(C)[C@@H](CC3CCCC3)C(=O)N[C@@H]([C@@H](C)CC)C(=O)N(C)CC(=O)N(C)[C@H]3C/C=C\CCN(C3=O)[C@@H](Cc3ccc(C(F)(F)F)cc3)C(=O)N(C)CC(=O)N[C@@H](CCc3ccc4sccc4c3)C(=O)N2C1 [PP1261] | – | – | 76.8 nM | 0.44 nM | – | – | – | A (a compound having 10 or more and less than 20 is denoted as A) | A (a compound having 10 or more and less than 20 is denoted as A) |
| CCO[C@@H]1C[C@H]2C(=O)NC3(CC(C)(C)C3)C(=O)N(C)[C@@H](C3CCCC3)C(=O)N(C)[C@H](C(=O)N(C)CC)CC(=O)N(C)[C@@H]([C@H](C)OC)C(=O)N[C@@H]([C@@H](C)CC)C(=O)N(C3CC3)CC(=O)N(C)[C@H]3C/C=C\CCN(C3=O)[C@@H](Cc3ccc(C(F)(F)F)cc3)C(=O)N(C)CC(=O)N[C@@H](CCc3cc(F)c(C(F)(F)F)c(F)c3)C(=O)N2C1 [PP3220] | 25.7 nM | 0.52 nM | – | – | – | A (a compound having 10 or more and less than 20 is denoted as A) | A (a compound having 10 or more and less than 20 is denoted as A) | – | – |
| CCO[C@@H]1C[C@H]2C(=O)NC3(CCC3)C(=O)N(C)[C@@H](C(CC)CC)C(=O)N(C)[C@H](C(=O)N(C)C)CC(=O)N(C)[C@@H](C)C(=O)N[C@@H]([C@@H](C)CC)C(=O)N(C)CC(=O)N(C)[C@H]3C/C=C\CCN(C3=O)[C@@H](Cc3ccc(C(F)(F)F)cc3)C(=O)N(C)CC(=O)N[C@@H](CCc3ccc4sccc4c3)C(=O)N2C1 [PP1222] | – | – | 301 nM | 1.2 nM | – | – | – | A (a compound having 10 or more and less than 20 is denoted as A) | A (a compound having 10 or more and less than 20 is denoted as A) |
| CCO[C@@H]1C[C@H]2C(=O)NC3(CC(C)(C)C3)C(=O)N(C)[C@@H](C(CC)CC)C(=O)N(C)[C@H](C(=O)N(C)C)CC(=O)N(C)[C@@H](COC)C(=O)N[C@@H]([C@@H](C)CC)C(=O)N(C3CC3)CC(=O)N(C)[C@H]3C/C=C\CCN(C3=O)[C@@H](CC3CCCCC3)C(=O)N(C)CC(=O)N[C@@H](CCc3cc(F)c(C(F)(F)F)c(F)c3)C(=O)N2C1 [PP2564] | 222 nM | – | – | – | 7.6 nM | A (a compound having 10 or more and less than 20 is denoted as A) | A (a compound having 10 or more and less than 20 is denoted as A) | – | – |
| CCC[C@H]1C(=O)N[C@@H]([C@@H](C)CC)C(=O)N(C2CC2)CC(=O)N(C)[C@H]2C/C=C\CCN(C2=O)[C@@H](Cc2ccc(C)cc2)C(=O)N(C)CC(=O)N[C@@H](CCc2ccc(Cl)c(Cl)c2)C(=O)N2C[C@H](OCC)C[C@H]2C(=O)NC2(CC(C)(C)C2)C(=O)N(C)[C@@H](CC2CCC2)C(=O)N(C)[C@H](C(=O)N(C)C)CC(=O)N1C [PP2761] | 68.4 nM | – | – | – | 2.8 nM | A (a compound having 10 or more and less than 20 is denoted as A) | A (a compound having 10 or more and less than 20 is denoted as A) | – | – |
